From PubChem BioAssay AID180 (DTP/NCI, 2004) come the findings set out here.

What is called T/C is the ratio of treated to control.

Structures are written as SMILES. Values joined by “and” are separate entries in the source; they are usually repeats but may differ in a detail not shown here. Equal values may be shown once.

The assay deals with BDF1 mice, Adenocarcinoma 755 s.c., tumor weight T/C. Briefly: NCI In Vivo Anticancer Drug Screen. Data for tumor model Adenocarcinoma 755 (subcutaneous) in B6D2F1 (BDF1) mice. The note with it: endpoint: mean tumor weight, schedule: Q01DX011 (ip), higher = larger tumour. The method, boiled down: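 Compound activity was tested in mice carrying transplanted tumors. Survival or tumor size was measured, and each value is the treated-group measurement divided by that of the vehicle-treated control group (T/C).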

[1] abbreviates: dose: 2.0 mg/kg/injection, vehicle: carboxymethylcellulose (CMC).
Where [2] appears, read: dose: 4.0 mg/kg/injection, vehicle: carboxymethylcellulose (CMC).
Setting [3] is: dose: 8.0 mg/kg/injection, vehicle: carboxymethylcellulose (CMC).
[4] abbreviates: dose: 28.0 mg/kg/injection, vehicle: carboxymethylcellulose (CMC).
[5] abbreviates: dose: 1.0 mg/kg/injection, vehicle: carboxymethylcellulose (CMC).
[6] abbreviates: dose: 3.0 mg/kg/injection, vehicle: carboxymethylcellulose (CMC).
The mark [7] stands for this setting: dose: 25.0 mg/kg/injection, vehicle: saline.
Setting [8] is: dose: 50.0 mg/kg/injection, vehicle: saline.

In the case of `CCCCn1cnc2c(SC(C)C)nc(N)nc21`, the T/C (dose: 1.56 mg/kg/injection, vehicle: methylcellulose (MC)) is 64 % of control; the T/C (dose: 3.12 mg/kg/injection, vehicle: methylcellulose (MC)) is 57 % of control; the T/C (dose: 6.25 mg/kg/injection, vehicle: methylcellulose (MC)) is 14 % of control and 24 % of control; the T/C (dose: 12.5 mg/kg/injection, vehicle: methylcellulose (MC)) is 3 % of control and 8 % of control.
With `CC(=O)Nc1nc(SCc2ccccc2)c2ncn(C3CCCO3)c2n1` (configuration not stated), the T/C by setting is: (dose: 6.2 mg/kg/injection, vehicle: methylcellulose (MC)) 54 % of control; (dose: 15.0 mg/kg/injection, vehicle: methylcellulose (MC)) 6 % of control; (dose: 50.0 mg/kg/injection, vehicle: methylcellulose (MC)) 4 % of control.
For `CS(=O)(=O)OCCCCCCCCCOS(C)(=O)=O`, the T/C reads like this: under setting [1], 35 % of control; under setting [2], 49 % of control; under setting [3], 54 % of control; (dose: 16.0 mg/kg/injection, vehicle: carboxymethylcellulose (CMC)) 26 % of control; under setting [4], 7 % of control.
In the case of `CCSc1ncc(Br)c(Sc2nc(N)nc3nc[nH]c23)n1`, the T/C runs as follows: (dose: 0.5 mg/kg/injection, vehicle: carboxymethylcellulose (CMC)) 69 % of control; (dose: 0.5 mg/kg/injection, vehicle: methylcellulose (MC)) 68 % of control; under setting [5], 17 % of control and 30 % of control; (dose: 1.0 mg/kg/injection, vehicle: methylcellulose (MC)) 37 % of control; (dose: 1.5 mg/kg/injection, vehicle: carboxymethylcellulose (CMC)) 18 % of control; under setting [1], 57 % of control. Further, the T/C is 3 % of control and 5 % of control and 23 % of control under setting [6]; 2 % of control under setting [2]; 2 % of control (dose: 6.0 mg/kg/injection, vehicle: carboxymethylcellulose (CMC)); 15 % of control under setting [3]; 3 % of control (dose: 12.0 mg/kg/injection, vehicle: carboxymethylcellulose (CMC)).
With `O=P1(N(CCCl)CCCl)NCCCO1` (configuration not stated), the T/C (dose: 6.25 mg/kg/injection, vehicle: saline) was 87 % of control; the T/C (dose: 7.13 mg/kg/injection, vehicle: carboxymethylcellulose (CMC)) is 59 % of control; the T/C (dose: 7.66 mg/kg/injection, vehicle: carboxymethylcellulose (CMC)) is 92 % of control; the T/C (dose: 10.22 mg/kg/injection, vehicle: carboxymethylcellulose (CMC)) is 92 % of control; the T/C (dose: 11.4 mg/kg/injection, vehicle: carboxymethylcellulose (CMC)) is 46 % of control; the T/C (dose: 12.25 mg/kg/injection, vehicle: carboxymethylcellulose (CMC)) is 52 % of control. For the same compound, the T/C is, setting by setting: (dose: 12.5 mg/kg/injection, vehicle: carboxymethylcellulose (CMC)) 57 % of control; (dose: 12.5 mg/kg/injection, vehicle: saline) 36 % of control and 60 % of control; (dose: 14.25 mg/kg/injection, vehicle: carboxymethylcellulose (CMC)) 22 % of control and 29 % of control; (dose: 19.0 mg/kg/injection, vehicle: carboxymethylcellulose (CMC)) 22 % of control; (dose: 20.43 mg/kg/injection, vehicle: carboxymethylcellulose (CMC)) 66 % of control; (dose: 25.0 mg/kg/injection, vehicle: carboxymethylcellulose (CMC)) 8 % of control. In addition, the T/C is, setting by setting: under setting [7], 30 % of control and 55 % of control; (dose: 28.5 mg/kg/injection, vehicle: carboxymethylcellulose (CMC)) 4 % of control and 15 % of control; (dose: 30.65 mg/kg/injection, vehicle: carboxymethylcellulose (CMC)) 6 % of control and 29 % of control; under setting [8], 8 % of control and 17 % of control; (dose: 57.0 mg/kg/injection, vehicle: carboxymethylcellulose (CMC)) 3 % of control; (dose: 61.3 mg/kg/injection, vehicle: carboxymethylcellulose (CMC)) 5 % of control.
As to `CN(C)[C@@H]1C(=O)C(C(=O)NCc2nc3[nH]cnc(=S)c3[nH]2)=C(O)[C@@]2(O)C(=O)C3=C(O)c4c(O)cccc4[C@@](C)(O)[C@H]3C[C@@H]12`, the T/C reads like this: under setting [5], 64 % of control; under setting [1], 44 % of control; under setting [6], 78 % of control; under setting [2], 62 % of control; (dose: 14.0 mg/kg/injection, vehicle: carboxymethylcellulose (CMC)) 1 % of control and 3 % of control and 5 % of control; under setting [4], 1 % of control and 2 % of control. The T/C (dose: 56.0 mg/kg/injection, vehicle: carboxymethylcellulose (CMC)) is 6 % of control.
For the compound `CCC1=C(c2cc(Cl)c3ccccc3c2OCC(=O)O)OC(CC)(C(=O)c2cc(Cl)c3ccccc3c2OCC(=O)O)CC1` (configuration not stated), the T/C (dose: 30.0 mg/kg/injection, vehicle: alkali diluted with saline) is 152 % of control.
Regarding `CCCCN(C)N=Nc1ccc(CCCC(=O)OCC)cc1`, the T/C reads like this: under setting [7], 64 % of control; under setting [8], 57 % of control; (dose: 75.0 mg/kg/injection, vehicle: saline) 50 % of control.
